Results as given in US11639332B2, “Methods and compositions of isoindoline-1,3-dione and isoindole prodrugs useful for treating cancer, ulcerative colitis and related inflammatory diseases” (AMGEN (EUROPE) GMBH, priority 2018, dated 2023).
Where “and” joins values, the source holds several entries; their conditions need not be identical. Equal entries are not always repeated.

System: Trinitrobenzenesulfonic Acid (TNBS) Rat Model of Colonic Inflammation
Test: Trinitrobenzenesulfonic acid (TNBS) rat model of colonic inflammation, oral treatment Days 1-6, evaluation Day 7
Assay type: in vivo, Sprague-Dawley rats
Set-up: key to Average Colonic Score: sum of adhesions, strictures, ulcers and wall thickness scores
Procedure: In Vivo Efficacy of PDE4 Inhibitor Prodrug in the Trinitrobenzenesulfonic Acid (TNBS) Rat Model of Colonic Inflammation
2. 1.62 g of prodrug from Example 2 (WB301), lot 2 (MW 587.12) in a clear 20 mL glass vial (orange material) which was stored at 4-8° C.
38 Sprague-Dawley rats (Harlan Sprague-Dawley, Inc. male, PO #599229, R #3450, 200-220 g) were received, individually examined and housed in nine cages of four rats each and one cage containing two rats. No clinical signs of disease or distress were observed. The rats were placed in quarantine with daily inspections. The rats were ear notched (SOP 800) for identification purposes, weighed (RESULTS), and sorted into four treatment groups of eight rats each based upon average body weight. The rats were individually examined and found to be free of any clinical signs of disease or distress. No deaths were recorded during the quarantine period. The rats were released to routine maintenance.
A 16 mg/ml TNBS solution was prepared be adding 2.729 ml picrylsulfonic acid solution (1 M, FLU KA, Cat. 92822, lot CDBB6609V) to 22.271 ml de-ionized water (dH20) and 25 ml 100% ethanol (200 proof, Sigma, Cat. E7023, lot SHBH3633V).
The rats were weighed (RESULTS), anesthetized (SOP1810) and Groups 1-4 were intra-rectally instilled with 4 ml/kg TNBS solution (64 mg/kg), the anus was pinched closed and the rat held inverted for one minute.
400 mg (-)riboflavin was dissolved in 40 ml DMSO (Sigma, Cat. D5879, lot 16K0127) by sonication in a 40° C. water bath for 20 minutes in an amber glass bottle, followed by storage at room temperature overnight to prepare a 10 mg/ml yellow solution.
135 mg NaOH (Fisher Scientific, Cat. S320, lot 066620) was dissolved in 100 ml dH2O to prepare a 1.35 mg/ml solution. 128.46 mg prednisolone 21-hemisuccinate sodium salt (Sigma, Cat. P4153, lot BCBB6136V, salt factor 1.339) was dissolved in 9.59 ml (-)riboflavin/DMSO followed by addition of 9.59 ml PEG400 (Sigma, Cat. 91893, lot BCBB7720). 28.781 aqueous NaOH was added with sonication to prepare a 2 mg/ml solution for Group 4. 44 mg WB301 was vortexed in 2.19 ml (-)riboflavin/DMSO to yield an orange solution followed by addition of 2.19 ml PEG400. 6.621 ml aqueous NaOH was added with sonication to prepare a 4 mg/ml solution for Group 1. 132 mg WB301 was vortexed in 2.19 ml (-)riboflavin/DMSO to yield an orange solution followed by addition of 2.19 ml PEG400. 6.621 ml aqueous NaOH was added with sonication to prepare a 12 mg/ml solution for Group 2. 6.6 mg apremilast was vortexed in 2.2 ml (-)riboflavin/DMSO to yield an orange solution followed by addition of 6.6 ml PEG400. 2.2 ml dH2O was added to prepare a 0.6 mg/ml solution for Group 3.
The rats were weighed (RESULTS) and daily oral (PO, SOP 1651) dosing at 5 ml/kg was initiated as in TABLE 1.
The rats were weighed (RESULTS) and the animals were dosed as described above daily. WB301 and apremilast solutions were prepared fresh daily as described above.
The rats were weighed (RESULTS) anesthetized, a midline incision was made in the abdomen and the colon was evaluated for adhesions and stricture (RESULTS). The colon was removed and the length recorded (RESULTS). A midline incision was made the entire length of the colon, the contents removed and the colon weight and colon wall thickness recorded (RESULTS). A section of the colon was preserved in 20 volumes of 10% neutral buffered formalin (Richard-Allan Scientific, Cat. 5701, lot 378532, exp07/2020). The carcasses were disposed of.
3) involving several bowel loops=2
4) severe, proximal dilatation=3
2) linear ulceration <1 cm=1
3) two linear ulcers <1 cm=2
4) more sites of ulceration or one large ulcer=3

[1] = group mean, Group 3, 3 mg/kg PO daily, Day 7
[2] = group mean, Group 3, 3 mg/kg PO daily, Day 7, score 0-2
[3] = group mean, Group 3, 3 mg/kg PO daily, Day 7, score 0-3
[4] = individual rats, Group 3, 3 mg/kg PO daily, Day 7

`CCOc1cc([C@@H](CS(C)(=O)=O)N2C(=O)c3cccc(NC(C)=O)c3C2=O)ccc1OC` [Apremilast, apremilast, reference compound] was tested, and the macroscopic disease scores (Group 3, 3 mg/kg daily oral) was “improvement of the macroscopic disease scores”, the “study day on which rats began to recover from TNBS-induced weight loss” value (Group 3, 3 mg/kg daily oral) was 6 days and the “reduction in overall colonic score” value (Group 3, 3 mg/kg daily oral, assuming a colonic score of 10 for vehicle-treated rats) was 25%. For the same compound, the body weight loss (Group 3, 3 mg/kg daily oral, through DAY 5) was 11%, the “Average # Ulcers” value [1] was 1 and the “Average Colon Length” value [1] was 13.1 cm. For the same compound, the “Average Colon Weight” value [1] was 4.793 g, the “Average Colonic Score” value [1] was 7.6 and the “Average Ratio (colon length/colon weight)” value [1] was 3.470 cm/g. For the same compound, the “Average Ulcer Length” value [1] was 6.3 cm, the “Average Wall Thickness” value [1] was 3.0 mm and the “Average Adhesions” value [2] was 1.3. The “Average Colon Wall Thickness, score” value [2] was 1.5, the “Average Strictures” value [3] was 1.9 and the “Average Ulcers, score” value [3] was 3.0. For the same compound, the “Average Rat Weight” value (group mean, Group 3, 3 mg/kg PO daily, study day 0, day of TNBS, before dosing) was 214 g, the “Average Rat Weight” value (group mean, Group 3, 3 mg/kg PO daily, study day 1, before first dose) was 207 g and the “Average Rat Weight” value (group mean, Group 3, 3 mg/kg PO daily, study day 2) was 198 g. The “Average Rat Weight” value (group mean, Group 3, 3 mg/kg PO daily, study day 3) was 195 g, the “Average Rat Weight” value (group mean, Group 3, 3 mg/kg PO daily, study day 4) was 190 g and the “Average Rat Weight” value (group mean, Group 3, 3 mg/kg PO daily, study day 5) was 190 g. The “Average Rat Weight” value (group mean, Group 3, 3 mg/kg PO daily, study day 6) was 194 g, the “Average Rat Weight” value (group mean, Group 3, 3 mg/kg PO daily, study day 7) was 201 g and the “Average Rat Weight” value (group mean, Group 3, 3 mg/kg PO daily, study day −3, before TNBS and dosing) was 215 g. For the same compound, the “# Ulcers” value [4] was 1, the “Colon Length” value [4] was 10.0 cm and 15.5 cm and 12.0 cm (2×) and 11.5 cm and 13.0 cm and 15.0 cm and 16.0 cm and the “Colon Weight” value [4] was 3.608 g and 7.577 g and 2.860 g and 3.000 g and 4.462 g and 9.199 g and 6.085 g and 1.550 g. The “Ratio (colon length/colon weight)” value [4] was 2.772 cm/g and 2.046 cm/g and 4.196 cm/g and 3.833 cm/g and 2.913 cm/g and 1.631 cm/g and 2.629 cm/g and 7.742 cm/g, the “Ulcer Length” value [4] was 6.5 cm (2×) and 5.5 cm and 6.0 cm and 6.4 cm and 8.0 cm and 7.5 cm and 4.0 cm and the “Wall Thickness” value [4] was 2.5 mm (3×) and 3.5 mm (2×) and 3.7 mm and 4.0 mm and 1.5 mm. For the same compound, the “Colon Wall Thickness, score” value (individual rats, Group 3, 3 mg/kg PO daily, Day 7, less than 1 mm=0, 1-3 mm=1, >3 mm=2) was 1 (4×) and 2 (4×), the “Ulcers, score” value (individual rats, Group 3, 3 mg/kg PO daily, Day 7, none=0, linear ulceration <1 cm=1, two linear ulcers <1 cm=2, more sites or one large ulcer=3) was 3 and the Strictures (individual rats, Group 3, 3 mg/kg PO daily, Day 7, score none=0, mild=1, moderate=2, severe, proximal dilatation=3) was 1 (3×) and 3 (4×) and 0. The Adhesions (individual rats, Group 3, 3 mg/kg PO daily, Day 7, score none=0, minimal=1, involving several bowel loops=2) was 1 (4×) and 2 (3×) and 0, the “Colonic Score” value (individual rats, Group 3, 3 mg/kg PO daily, Day 7, sum of adhesions, strictures, ulcers and wall thickness scores) was 6 and 10 (2×) and 7 (2×) and 8 and 9 and 4 and the “Rat Weight” value (individual rats, Group 3, 3 mg/kg PO daily, study day 0, day of TNBS, before dosing) was 218 g and 213 g and 206 g and 220 g and 205 g and 217 g (2×) and 214 g. The “Rat Weight” value (individual rats, Group 3, 3 mg/kg PO daily, study day 1, before first dose) was 210 g and 213 g and 198 g and 214 g (2×) and 197 g and 204 g and 206 g, the “Rat Weight” value (individual rats, Group 3, 3 mg/kg PO daily, study day 2) was 198 g and 203 g (2×) and 183 g and 187 g and 205 g and 193 g and 214 g and the “Rat Weight” value (individual rats, Group 3, 3 mg/kg PO daily, study day 3) was 190 g and 200 g and 180 g (2×) and 198 g (2×) and 187 g and 225 g. For the same compound, the “Rat Weight” value (individual rats, Group 3, 3 mg/kg PO daily, study day 4) was 187 g (2×) and 200 g and 170 g and 188 g and 173 g and 183 g and 234 g, the “Rat Weight” value (individual rats, Group 3, 3 mg/kg PO daily, study day 5) was 189 g and 200 g and 167 g and 182 g (2×) and 172 g and 185 g and 244 g and the “Rat Weight” value (individual rats, Group 3, 3 mg/kg PO daily, study day 6) was 212 g and 202 g and 163 g and 176 g and 172 g and 186 g and 188 g and 250 g. The “Rat Weight” value (individual rats, Group 3, 3 mg/kg PO daily, study day 7) was 236 g and 210 g and 178 g (2×) and 177 g and 179 g and 194 g and 256 g and the “Rat Weight” value (individual rats, Group 3, 3 mg/kg PO daily, study day −3, before TNBS and dosing) was 218 g and 212 g and 210 g and 219 g and 209 g and 220 g and 217 g and 213 g.
For `Nc1ccc(O)c(C(=O)O)c1` [Example 5-ASA, 5-aminosalacyclic acid, reference compound], the “activity in the TNBS model” value (rat TNBS model, stated without data) was “inactive”.
